“Also recorded” adds a separate entry of the source.
Test: Chromatographic fingerprinting (HPLC-PDA contour and 3-D chromatograms) with interpretation of chemical and therapeutic properties by polarity and conjugation zones
Conditions: for Change of the molecules with time in the media (fingerprints at different time intervals): different time intervals under chemical conditions

Cc1ccc(-c2cc(C(F)(F)F)nn2-c2ccc(S(N)(=O)=O)cc2)cc1 [Celebocoxib]
Action compared to the other medicines of the same group: different in action

CC12CC3CC(C)(C1)CC(N)(C3)C2 [Mamentane]
Effect when consumed excessively, interpreted from the fingerprint (excessive use): effect on Maha srothas

O=C(/C=C/c1ccc(O)c(O)c1)O[C@@H]1C[C@](O)(C(=O)O)C[C@@H](O)[C@H]1O [Chlorogenic acid]
Change of the molecules with time in the media (fingerprints at different time intervals): under go changes

COc1ccc2[nH]c([S+]([O-])Cc3ncc(C)c(OC)c3C)nc2c1 (stereo not shown) [Onmeprazole]
Therapeutic property interpreted from the fingerprint (simulated acidic condition): Ropaneeya property | Therapeutic property interpreted from the fingerprint (the other prakrithi): has not acted so

CC(C)=CCC/C(C)=C/C=C/C(C)=C/C=C/C(C)=C/C=C/C=C(C)/C=C/C=C(C)/C=C/C=C(\C)CCC=C(C)C [Lycopine]
Therapeutic property / site of action interpreted from the fingerprint: shrothoshodhaka property; also recorded: stress reliever | Change of the molecules with time in the media (fingerprints at different time intervals): under go changes; also recorded: slowly diminished with time

— patent US20070288217A1, “Method for Standardization of Chemical and Therapeutic Values of Foods and Medicines Using Animated Chromatographic Fingerprinting” (priority 2004, published 2007)
